Experimental data published in PubChem BioAssay AID330 (DTP/NCI, 2004).
“And” between values parts separate entries of the source, which are not always exact repeats. Equal entries are not always repeated. Toxic doses and inconclusive results are not listed.

Test system: P388 leukemia ip, CD2F1 mice, survival T/C
Test: NCI In Vivo Anticancer Drug Screen. Data for tumor model P388 Leukemia (intraperitoneal) in CD2F1 (CDF1) mice
Conditions: endpoint: median survival time, higher = longer survival
In short: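 Mice carrying the transplanted tumor received test compound or vehicle. Survival was recorded in each group, and the value is the treated-group measurement divided by that of the vehicle-treated control group.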

[1] = dose: 100.0 mg/kg/injection, schedule: Q01DX009 (ip), vehicle: Klucel (hydroxypropylcellulose) (HPC)
[2] = dose: 200.0 mg/kg/injection, schedule: Q01DX009 (ip), vehicle: Klucel (hydroxypropylcellulose) (HPC)
[3] = dose: 60.0 mg/kg/injection, schedule: Q01DX005 (ip), vehicle: saline
[4] = dose: 120.0 mg/kg/injection, schedule: Q01DX005 (ip), vehicle: saline
[5] = dose: 240.0 mg/kg/injection, schedule: Q01DX005 (ip), vehicle: saline
[6] = dose: 50.0 mg/kg/injection, schedule: Q01DX005 (ip), vehicle: saline with Tween-80
[7] = dose: 100.0 mg/kg/injection, schedule: Q01DX005 (ip), vehicle: saline with Tween-80
[8] = dose: 200.0 mg/kg/injection, schedule: Q01DX005 (ip), vehicle: saline with Tween-80
[9] = dose: 60.0 mg/kg/injection, schedule: Q01DX005 (ip), vehicle: saline with Tween-80
[10] = dose: 120.0 mg/kg/injection, schedule: Q01DX005 (ip), vehicle: saline with Tween-80
[11] = dose: 240.0 mg/kg/injection, schedule: Q01DX005 (ip), vehicle: saline with Tween-80

In the case of `COc1cccc2c1C(=O)c1c(O)c3c(c(O)c1C2=O)CC(O)(/C(C)=N/NC(=O)CCCCC(=O)N/N=C(\C)C1(O)Cc2c(O)c4c(c(O)c2C(OC2CC(N)C(O)C(C)O2)C1)C(=O)c1c(OC)cccc1C4=O)CC3OC1CC(N)C(O)C(C)O1` (configuration not stated), the T/C (dose: 0.2 mg/kg/injection, schedule: Q01DX009 (ip), vehicle: water) is reported as 118 % of control, the T/C (dose: 0.78 mg/kg/injection, schedule: Q01DX009 (ip), vehicle: water) is reported as 154 % of control and the T/C (dose: 1.56 mg/kg/injection, schedule: Q01DX009 (ip), vehicle: water) is reported as 157 % of control and 172 % of control. The T/C (dose: 3.13 mg/kg/injection, schedule: Q01DX009 (ip), vehicle: water) was 186 % of control and 189 % of control, the T/C (dose: 6.25 mg/kg/injection, schedule: Q01DX009 (ip), vehicle: water) was 281 % of control and 289 % of control and the T/C (dose: 12.5 mg/kg/injection, schedule: Q01DX009 (ip), vehicle: water) was 100 % of control and 102 % of control.

With `NC(CSCc1ccc(N(CCCl)CCCl)cc1)C(=O)O` (configuration not stated) the T/C (dose: 4.0 mg/kg/injection, schedule: Q01DX009 (ip), vehicle: saline with Tween-80) was 172 % of control, the T/C (dose: 6.0 mg/kg/injection, schedule: Q01DX009 (ip), vehicle: saline with Tween-80) was 218 % of control and the T/C (dose: 6.25 mg/kg/injection, schedule: Q01DX009 (ip), vehicle: saline with Tween-80) was 245 % of control. The T/C (dose: 9.0 mg/kg/injection, schedule: Q01DX009 (ip), vehicle: saline with Tween-80) was 159 % of control.

For `COc1ccc(-c2cc(=O)c3cc(C)c(C)c(C#N)c3o2)cc1`, the T/C (dose: 3.75 mg/kg/injection, schedule: Q01DX005 (ip), vehicle: Klucel (hydroxypropylcellulose) (HPC)) was 120 % of control, the T/C (dose: 7.5 mg/kg/injection, schedule: Q01DX005 (ip), vehicle: Klucel (hydroxypropylcellulose) (HPC)) was 93 % of control and the T/C (dose: 15.0 mg/kg/injection, schedule: Q01DX005 (ip), vehicle: Klucel (hydroxypropylcellulose) (HPC)) was 109 % of control. The T/C (dose: 120.0 mg/kg/injection, schedule: Q01DX005 (ip), vehicle: Klucel (hydroxypropylcellulose) (HPC)) was 86 % of control.

`COc1ccccc1-n1c(Cc2cccc3ccccc23)n[nH]c1=S` was tested, and the T/C (dose: 50.0 mg/kg/injection, schedule: Q01DX005 (ip), vehicle: Klucel (hydroxypropylcellulose) (HPC)) was 99 % of control, the T/C (dose: 100.0 mg/kg/injection, schedule: Q01DX005 (ip), vehicle: Klucel (hydroxypropylcellulose) (HPC)) was 100 % of control and the T/C (dose: 200.0 mg/kg/injection, schedule: Q01DX005 (ip), vehicle: Klucel (hydroxypropylcellulose) (HPC)) was 99 % of control.

With `COc1ccc(CSC(=S)Nc2ccc(Br)c(C)c2)cc1` the T/C (dose: 50.0 mg/kg/injection, schedule: Q01DX009 (ip), vehicle: suspension in saline) was 96 % of control, the T/C (dose: 100.0 mg/kg/injection, schedule: Q01DX009 (ip), vehicle: suspension in saline) was 101 % of control and the T/C (dose: 200.0 mg/kg/injection, schedule: Q01DX009 (ip), vehicle: suspension in saline) was 109 % of control.

For `S=C(S)N1CCCCCC1`, the T/C (dose: 60.0 mg/kg/injection, schedule: Q01DX005 (ip), vehicle: suspension in saline) was 97 % of control and the T/C (dose: 120.0 mg/kg/injection, schedule: Q01DX005 (ip), vehicle: suspension in saline) was 95 % of control.

`COc1cc2ccc3c(c2cc1OC)CN(Cc1ccccc1)CC3` was tested, and the T/C [1] was 100 % of control, the T/C [2] was 100 % of control and the T/C (dose: 400.0 mg/kg/injection, schedule: Q01DX009 (ip), vehicle: Klucel (hydroxypropylcellulose) (HPC)) was 109 % of control.

For `CN(Cc1nc2ccccc2[nH]1)N=O`, the T/C (dose: 100.0 mg/kg/injection, schedule: Q01DX001 (ip), vehicle: Klucel (hydroxypropylcellulose) (HPC)) was 97 % of control, the T/C (dose: 200.0 mg/kg/injection, schedule: Q01DX001 (ip), vehicle: Klucel (hydroxypropylcellulose) (HPC)) was 107 % of control and the T/C (dose: 400.0 mg/kg/injection, schedule: Q01DX001 (ip), vehicle: Klucel (hydroxypropylcellulose) (HPC)) was 102 % of control.

`Cc1cc(N2CCOCC2)nc(N2CCOCC2)c1C#N` was tested, and the T/C (dose: 6.25 mg/kg/injection, schedule: Q01DX005 (ip), vehicle: saline with Tween-80) was 100 % of control, the T/C (dose: 12.5 mg/kg/injection, schedule: Q01DX005 (ip), vehicle: saline with Tween-80) was 108 % of control and the T/C (dose: 25.0 mg/kg/injection, schedule: Q01DX005 (ip), vehicle: saline with Tween-80) was 99 % of control.

`NC(=O)N/N=C1\C(=O)N(c2ccc(S(N)(=O)=O)cc2)C(=O)C1C(=O)Nc1ccc(S(N)(=O)=O)cc1` (configuration not stated) was tested, and the T/C [3] was 106 % of control, the T/C [4] was 102 % of control and the T/C [5] was 102 % of control.

With `CC(=O)/C(=C\c1cccs1)C(=O)CCN(C)C` the T/C [3] was 106 % of control and 111 % of control, the T/C [4] was 113 % of control and 122 % of control and the T/C [5] was 91 % of control.

For `CCNC(=O)CCC(NS(=O)(=O)c1ccc(NC(=O)c2ccc(Cl)cc2)cc1)C(=O)O` (configuration not stated), the T/C [6] was 107 % of control, the T/C [7] was 104 % of control and the T/C [8] was 102 % of control.

`Cc1ccc2c(C)c3c(ccc4ccccc43)c[n+]2c1` was tested, and the T/C (dose: 2.5 mg/kg/injection, schedule: Q04DX003 (ip), vehicle: other) was 103 % of control, the T/C (dose: 5.0 mg/kg/injection, schedule: Q04DX003 (ip), vehicle: other) was 101 % of control and the T/C (dose: 10.0 mg/kg/injection, schedule: Q04DX003 (ip), vehicle: other) was 100 % of control. For the same molecule, the T/C (dose: 20.0 mg/kg/injection, schedule: Q04DX003 (ip), vehicle: other) was 104 % of control.

`C=C1C(=O)OC2CC3(C)OC3CCC3(C)OC3CC12` (configuration not stated) was tested, and the T/C (dose: 7.75 mg/kg/injection, schedule: Q01DX005 (ip), vehicle: Klucel (hydroxypropylcellulose) (HPC)) was 105 % of control, the T/C (dose: 15.5 mg/kg/injection, schedule: Q01DX005 (ip), vehicle: Klucel (hydroxypropylcellulose) (HPC)) was 101 % of control and the T/C (dose: 31.0 mg/kg/injection, schedule: Q01DX005 (ip), vehicle: Klucel (hydroxypropylcellulose) (HPC)) was 109 % of control. The T/C (dose: 62.0 mg/kg/injection, schedule: Q01DX005 (ip), vehicle: Klucel (hydroxypropylcellulose) (HPC)) was 105 % of control.

`CCOC(=O)C(Cc1ccc(N(CCCl)CCCl)cc1)NC(=O)CNC(C)=O` (configuration not stated) was tested, and the T/C (dose: 0.5 mg/kg/injection, schedule: Q04DX003 (ip), vehicle: saline with Tween-80) was 113 % of control, the T/C (dose: 1.0 mg/kg/injection, schedule: Q04DX003 (ip), vehicle: saline with Tween-80) was 104 % of control and the T/C (dose: 12.5 mg/kg/injection, schedule: Q01DX009 (ip), vehicle: saline with Tween-80) was 177 % of control. For the same molecule, the T/C (dose: 12.5 mg/kg/injection, schedule: Q04DX003 (ip), vehicle: saline) was 165 % of control, the T/C (dose: 25.0 mg/kg/injection, schedule: Q01DX009 (ip), vehicle: saline with Tween-80) was 268 % of control and the T/C (dose: 33.0 mg/kg/injection, schedule: Q04DX003 (ip), vehicle: saline with Tween-80) was 113 % of control. The T/C (dose: 50.0 mg/kg/injection, schedule: Q04DX003 (ip), vehicle: saline with Tween-80) was 90 % of control.

`CC(NNC(=S)N1CCCC1)c1ccc2ccccc2n1` (configuration not stated) was tested, and the T/C [6] was 94 % of control, the T/C [7] was 94 % of control and the T/C [8] was 94 % of control.

With `CCCCCCCCCCCCCCCCOCC(COP(=O)([O-])OCC[N+](C)(C)C)OCCCCCCCCCCCCCCCC` (configuration not stated) the T/C [9] was 97 % of control, the T/C [10] was 100 % of control and the T/C [11] was 104 % of control.

In the case of `CC(=O)OC1CC2C(C)(C)C(=O)C=CC2(C)C2CCC3(C)C(c4ccoc4)CC(=O)C3C12C` (configuration not stated), the T/C (dose: 0.5 mg/kg/injection, schedule: Q01DX005 (ip), vehicle: Klucel (hydroxypropylcellulose) (HPC)) is reported as 99 % of control, the T/C (dose: 1.0 mg/kg/injection, schedule: Q01DX005 (ip), vehicle: Klucel (hydroxypropylcellulose) (HPC)) is reported as 100 % of control and the T/C (dose: 2.0 mg/kg/injection, schedule: Q01DX005 (ip), vehicle: Klucel (hydroxypropylcellulose) (HPC)) is reported as 97 % of control. For the same molecule, the T/C (dose: 4.0 mg/kg/injection, schedule: Q01DX005 (ip), vehicle: Klucel (hydroxypropylcellulose) (HPC)) was 100 % of control and the T/C (dose: 8.0 mg/kg/injection, schedule: Q01DX005 (ip), vehicle: Klucel (hydroxypropylcellulose) (HPC)) was 98 % of control.

In the case of `FC1OC1(F)C12CC3CC(CC(C3)C1)C2` (configuration not stated), the T/C (dose: 50.0 mg/kg/injection, schedule: Q01DX009 (ip), vehicle: Klucel (hydroxypropylcellulose) (HPC)) is reported as 106 % of control, the T/C [1] is reported as 106 % of control and the T/C [2] is reported as 105 % of control.

For `CSC1=NC=C(C#N)C2=NC(c3ccc(Cl)cc3)NN12` (configuration not stated), the T/C [9] was 90 % of control, the T/C [10] was 93 % of control and the T/C [11] was 94 % of control.

`C#CC(C)(C)Oc1ccc2c(=O)c(-c3ccc(OC)c(OC)c3)coc2c1` was tested, and the T/C [9] was 90 % of control, the T/C [10] was 92 % of control and the T/C [11] was 89 % of control.

`N#C/C(=C1/Nc2ccccc2NC1=O)c1ccccc1` was tested, and the T/C (dose: 50.0 mg/kg/injection, schedule: Q01DX009 (ip), vehicle: distilled water + Tween-80 + alcohol) was 96 % of control and the T/C (dose: 100.0 mg/kg/injection, schedule: Q01DX009 (ip), vehicle: distilled water + Tween-80 + alcohol) was 92 % of control.
